From patent US11377442B2, “Small molecule agonists and antagonists of NR2F6 activity” (ZANDER THERAPEUTICS, INC., priority 2016, dated 2022)

Target: T1, NR2F6 (Homo sapiens, UniProt P10588)
T1 construct: expressed in transfected cells; also transient transfection
T1 sequence (P10588 1-404): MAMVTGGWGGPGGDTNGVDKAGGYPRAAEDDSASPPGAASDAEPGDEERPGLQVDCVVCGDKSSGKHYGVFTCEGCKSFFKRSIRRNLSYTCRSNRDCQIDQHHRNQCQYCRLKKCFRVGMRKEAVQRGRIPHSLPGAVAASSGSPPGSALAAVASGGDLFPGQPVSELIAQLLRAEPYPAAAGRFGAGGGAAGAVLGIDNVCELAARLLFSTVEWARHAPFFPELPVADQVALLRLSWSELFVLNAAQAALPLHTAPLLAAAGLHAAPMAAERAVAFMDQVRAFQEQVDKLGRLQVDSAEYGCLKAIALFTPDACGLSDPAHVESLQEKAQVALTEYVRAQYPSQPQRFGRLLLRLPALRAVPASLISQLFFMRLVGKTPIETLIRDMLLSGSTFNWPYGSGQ
Test: NR2F6 agonist screening, Firefly signal cmpd/DMSO
Assay type: cell-based
Conditions: for Firefly/Renilla (NR2F6 stable, clone F4): ratio Firefly/Renilla; for Firefly, NR2F6 stable (clone F4)/pGL4: ratio of Firefly in NR2F6 stable clone F4 to pGL4

[1] = C11 analogs follow set (Tables 2-10)

SMILES | Firefly, cmpd/DMSO repeat 1 [1] | Firefly, cmpd/DMSO repeat 2 [1] | also measured
COc1ccc2oc(=O)c(S(=O)(=O)c3ccc(OC)c(OC)c3)cc2c1 [Compound C156] | 1.0 | 1.0 | 
COc1ccc2oc(=O)c(S(=O)(=O)c3ccc(F)c(Cl)c3)cc2c1 [Compound C158] | 1.5 | 1.2 | 
O=C(Nc1ccc(F)cc1)c1ccc2oc(=O)c(S(=O)(=O)c3ccc(F)cc3)cc2c1 [Compound C159] | 0.9 | 1.2 | 
Cc1ccccc1NC(=O)c1ccc2oc(=O)c(S(=O)(=O)c3ccc(F)cc3)cc2c1 [Compound C160] | 22.9 | 20.2 | Firefly/Renilla (NR2F6 stable, clone F4) (Table 12): 2.4; Firefly, NR2F6 stable (clone F4)/pGL4 (Table 12): 7.2; Firefly, cmpd/DMSO repeat 1 (Table 12): 22.9; Firefly, cmpd/DMSO repeat 2 (Table 12): 20.2
Cc1ccc(NC(=O)c2ccc3oc(=O)c(S(=O)(=O)c4ccccc4)cc3c2)cc1 [Compound C161] | 35.4 | 39.0 | Firefly/Renilla (NR2F6 stable, clone F4) (Table 13): 1.3; Firefly, NR2F6 stable (clone F4)/pGL4 (Table 13): 8.1; Firefly, cmpd/DMSO repeat 1 (Table 13): 35.4; Firefly, cmpd/DMSO repeat 2 (Table 13): 39.0
Cc1ccc(NC(=O)c2ccc3oc(=O)c(S(=O)(=O)c4ccc(C)cc4)cc3c2)cc1 [Compound C162] | 20.9 | 20.6 | 
Cc1ccc(NC(=O)c2ccc3oc(=O)c(S(=O)(=O)c4ccc(F)cc4)cc3c2)cc1 [Compound C163] | 2.0 | 5.2 | 
Cc1ccc(NC(=O)c2ccc3oc(=O)c(S(=O)(=O)c4ccccc4)cc3c2)c(C)c1 [Compound C164] | 29.3 | 19.6 | Firefly/Renilla (NR2F6 stable, clone F4) (Table 12): 2.1; Firefly, NR2F6 stable (clone F4)/pGL4 (Table 12): 8.2; Firefly, cmpd/DMSO repeat 1 (Table 12): 29.3; Firefly, cmpd/DMSO repeat 2 (Table 12): 19.6
Cc1ccc(NC(=O)c2ccc3oc(=O)c(S(=O)(=O)c4ccc(Cl)cc4)cc3c2)c(C)c1 [Compound C166] | 3.4 | 4.2 | 
Cc1ccc(NC(=O)c2ccc3oc(=O)c(S(=O)(=O)c4ccccc4)cc3c2)cc1C [Compound C167] | 1.0 | 0.7 | 
Cc1ccc(S(=O)(=O)c2cc3cc(C(=O)Nc4ccc(C)c(C)c4)ccc3oc2=O)cc1 [Compound C168] | 11.8 | 11.4 | 
Cc1ccc(NC(=O)c2ccc3oc(=O)c(S(=O)(=O)c4ccc(F)cc4)cc3c2)cc1C [Compound C169] | 8.8 | 10.6 | 
Cc1ccc(NC(=O)c2ccc3oc(=O)c(S(=O)(=O)c4ccc(Cl)cc4)cc3c2)cc1C [Compound C170] | 1.7 | 1.6 | 
Cc1ccc(S(=O)(=O)c2cc3cc(C(=O)Nc4cccc(C)c4)ccc3oc2=O)cc1 [Compound C171] | 6.4 | 4.2 | 
Cc1cccc(NC(=O)c2ccc3oc(=O)c(S(=O)(=O)c4ccc(Cl)cc4)cc3c2)c1 [Compound C173] | 9.8 | 6.9 | 
Cc1cc(C)cc(NC(=O)c2ccc3oc(=O)c(S(=O)(=O)c4ccccc4)cc3c2)c1 [Compound C174] | 5.8 | 14.3 | 
Cc1ccc(S(=O)(=O)c2cc3cc(C(=O)Nc4cc(C)cc(C)c4)ccc3oc2=O)cc1 [Compound C175] | 13.2 | 11.9 | Firefly/Renilla (NR2F6 stable, clone F4) (Table 13): 1.1; Firefly, NR2F6 stable (clone F4)/pGL4 (Table 13): 5.7; Firefly, cmpd/DMSO repeat 1 (Table 13): 13.2; Firefly, cmpd/DMSO repeat 2 (Table 13): 11.9
Cc1cc(C)cc(NC(=O)c2ccc3oc(=O)c(S(=O)(=O)c4ccc(F)cc4)cc3c2)c1 [Compound C176] | 3.7 | 9.6 | 

SMILES | Firefly, cmpd/DMSO repeat 1 [1] | Firefly, cmpd/DMSO repeat 2 [1] | also measured
COc1ccc(NC(=O)c2ccc3oc(=O)c(S(=O)(=O)c4ccccc4)cc3c2)cc1 [Compound C177] | 17.4 | 8.2 | Firefly/Renilla (NR2F6 stable, clone F4) (Table 12): 2.3; Firefly, NR2F6 stable (clone F4)/pGL4 (Table 12): 8.5; Firefly, cmpd/DMSO repeat 1 (Table 12): 17.4; Firefly, cmpd/DMSO repeat 2 (Table 12): 8.2
COc1ccc(NC(=O)c2ccc3oc(=O)c(S(=O)(=O)c4ccc(C)cc4)cc3c2)cc1 [Compound C178] | 15.2 | 16.9 | 
COc1ccc(NC(=O)c2ccc3oc(=O)c(S(=O)(=O)c4ccc(F)cc4)cc3c2)cc1 [Compound C179] | 8.7 | 10.1 | 
COc1ccc(NC(=O)c2ccc3oc(=O)c(S(=O)(=O)c4ccc(Cl)cc4)cc3c2)cc1 [Compound C180] | 34.0 | 34.5 | Firefly/Renilla (NR2F6 stable, clone F4) (Table 13): 1.1; Firefly, NR2F6 stable (clone F4)/pGL4 (Table 13): 13.1; Firefly, cmpd/DMSO repeat 1 (Table 13): 34.0; Firefly, cmpd/DMSO repeat 2 (Table 13): 34.5
CCOc1ccccc1NC(=O)c1ccc2oc(=O)c(S(=O)(=O)c3ccc(F)cc3)cc2c1 [Compound C181] | 10.4 | 13.5 | 
O=c1oc2ccc(Cl)cc2cc1S(=O)(=O)c1cccc(F)c1 [Compound C182] | 16.2 | 17.3 | Firefly/Renilla (NR2F6 stable, clone F4) (Table 13): 1.2; Firefly, NR2F6 stable (clone F4)/pGL4 (Table 13): 8.2; Firefly, cmpd/DMSO repeat 1 (Table 13): 16.2; Firefly, cmpd/DMSO repeat 2 (Table 13): 17.3
O=c1oc2ccc(Br)cc2cc1S(=O)(=O)c1cccc(F)c1 [Compound C183] | 1.2 | 1.2 | 
COc1cccc(S(=O)(=O)c2cc3cc(Cl)ccc3oc2=O)c1 [Compound C184] | 1.1 | 1.4 | 
COc1cccc(S(=O)(=O)c2cc3cc(Br)ccc3oc2=O)c1 [Compound C185] | 2.6 | 2.4 | 
Cc1cc(C)cc(S(=O)(=O)c2cc3cc(Cl)ccc3oc2=O)c1 [Compound C186] | 1.0 | 6.9 | 
Cc1cc(C)cc(S(=O)(=O)c2cc3cc(Br)ccc3oc2=O)c1 [Compound C187] | 0.8 | 0.7 | 
Cc1ccc(S(=O)(=O)c2cc3cc(Cl)ccc3oc2=O)cc1Cl [Compound C188] | 9.4 | 8.7 | Firefly/Renilla (NR2F6 stable, clone F4) (Table 13): 1.2; Firefly, NR2F6 stable (clone F4)/pGL4 (Table 13): 5.0; Firefly, cmpd/DMSO repeat 1 (Table 13): 9.4; Firefly, cmpd/DMSO repeat 2 (Table 13): 8.7
Cc1ccc(S(=O)(=O)c2cc3cc(Br)ccc3oc2=O)cc1Cl [Compound C189] | 2.8 | 2.2 | 
Cc1cc(C)cc(S(=O)(=O)c2cc3cc(F)ccc3oc2=O)c1 [Compound C190] | 2.1 | 2.5 | 
O=c1oc2ccc(Cl)cc2cc1S(=O)(=O)c1cccc(Cl)c1 [Compound C191] | 8.6 | 12.8 | 
O=c1oc2ccc(Br)cc2cc1S(=O)(=O)c1cccc(Cl)c1 [Compound C192] | 1.8 | 2.4 | 
O=c1oc2ccc(Br)cc2cc1S(=O)(=O)c1cc(F)cc(F)c1 [Compound C193] | 1.8 | 1.9 | 
O=c1oc2ccc(Cl)cc2cc1S(=O)(=O)c1cc(F)cc(F)c1 [Compound C194] | 10.6 | 6.3 | Firefly/Renilla (NR2F6 stable, clone F4) (Table 13): 1.3; Firefly, NR2F6 stable (clone F4)/pGL4 (Table 13): 6.6; Firefly, cmpd/DMSO repeat 1 (Table 13): 10.6; Firefly, cmpd/DMSO repeat 2 (Table 13): 6.3
